Source: ChEMBL document CHEMBL5352400, “Design, synthesis and biological evaluation of novel coumarin derivatives as multifunctional ligands for the treatment of Alzheimer's disease” (Eur J Med Chem, 2022)

Columns and labels:
[1] = Cytotoxicity in human HepG2 cells assessed as reduction in cell viability incubated for 48 hrs by MTT assay; format: toxicity, cell-based
[2] = molecular target: Cholinesterase (Equus caballus, UniProt P81908); test: Inhibition of equine serum BuChE using butylthiocholine iodine as substrate preincubated for 20 mins followed by substrate addition and measured after 20 mins by DTNB reagent based Ellman's method
Cholinesterase, sequence (P81908 whole entry): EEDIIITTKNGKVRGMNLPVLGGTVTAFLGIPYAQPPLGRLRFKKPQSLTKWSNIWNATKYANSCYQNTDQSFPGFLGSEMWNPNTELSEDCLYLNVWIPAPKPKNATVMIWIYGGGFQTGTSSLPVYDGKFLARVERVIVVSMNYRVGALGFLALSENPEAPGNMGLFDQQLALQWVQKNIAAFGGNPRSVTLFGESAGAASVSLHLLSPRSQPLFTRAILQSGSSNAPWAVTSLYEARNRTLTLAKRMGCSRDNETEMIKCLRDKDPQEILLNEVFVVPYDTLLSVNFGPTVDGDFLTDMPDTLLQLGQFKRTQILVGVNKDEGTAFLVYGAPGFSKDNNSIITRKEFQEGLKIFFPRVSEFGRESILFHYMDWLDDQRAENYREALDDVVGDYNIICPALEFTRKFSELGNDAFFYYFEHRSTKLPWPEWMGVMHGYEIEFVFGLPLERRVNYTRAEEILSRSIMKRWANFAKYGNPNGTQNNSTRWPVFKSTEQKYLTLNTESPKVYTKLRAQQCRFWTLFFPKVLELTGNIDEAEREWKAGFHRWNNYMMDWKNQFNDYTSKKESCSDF

[3] = molecular target: Acetylcholinesterase (Electrophorus electricus, UniProt O42275); test: Inhibition of electric eel AChE using acetylthiocholine iodine as substrate preincubated for 20 mins followed by substrate addition and measured after 20 mins by DTNB reagent based Ellman's method
Acetylcholinesterase, sequence (O42275 whole entry): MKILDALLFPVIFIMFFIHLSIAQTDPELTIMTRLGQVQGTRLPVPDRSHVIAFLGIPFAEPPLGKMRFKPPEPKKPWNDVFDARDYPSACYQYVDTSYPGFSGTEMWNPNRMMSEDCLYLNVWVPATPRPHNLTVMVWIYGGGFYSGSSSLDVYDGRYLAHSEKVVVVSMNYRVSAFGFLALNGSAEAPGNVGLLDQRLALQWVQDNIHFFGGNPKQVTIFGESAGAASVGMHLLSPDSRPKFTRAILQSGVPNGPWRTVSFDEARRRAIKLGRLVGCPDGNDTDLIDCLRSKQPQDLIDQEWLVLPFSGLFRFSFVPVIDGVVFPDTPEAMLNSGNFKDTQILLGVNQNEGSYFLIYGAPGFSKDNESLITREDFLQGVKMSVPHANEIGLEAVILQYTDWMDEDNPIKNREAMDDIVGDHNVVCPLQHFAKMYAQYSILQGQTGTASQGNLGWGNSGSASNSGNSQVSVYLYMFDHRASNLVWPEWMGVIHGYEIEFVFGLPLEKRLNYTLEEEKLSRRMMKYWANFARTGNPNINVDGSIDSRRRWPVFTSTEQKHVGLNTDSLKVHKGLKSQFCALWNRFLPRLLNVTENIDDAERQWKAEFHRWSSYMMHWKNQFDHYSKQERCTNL

[4] = Selectivity index, ratio of IC50 for inhibition of equine serum BuChE to IC50 for inhibition of electric eel AChE
[5] = Cytotoxicity in human SH-SY5Y cells assessed as reduction in cell viability incubated for 48 hrs by MTT assay; format: toxicity, cell-based
[6] = molecular target: T1, Beta-secretase 1 (Homo sapiens, UniProt P56817); test: Inhibition of recombinant human BACE1 using fluorogenic polypeptide Mca-SEVNLDAEFRK(Dpn)RRNH2 as substrate at 10 uM incubated for 60 mins by FRET assay relative to control
T1 sequence (P56817 whole entry): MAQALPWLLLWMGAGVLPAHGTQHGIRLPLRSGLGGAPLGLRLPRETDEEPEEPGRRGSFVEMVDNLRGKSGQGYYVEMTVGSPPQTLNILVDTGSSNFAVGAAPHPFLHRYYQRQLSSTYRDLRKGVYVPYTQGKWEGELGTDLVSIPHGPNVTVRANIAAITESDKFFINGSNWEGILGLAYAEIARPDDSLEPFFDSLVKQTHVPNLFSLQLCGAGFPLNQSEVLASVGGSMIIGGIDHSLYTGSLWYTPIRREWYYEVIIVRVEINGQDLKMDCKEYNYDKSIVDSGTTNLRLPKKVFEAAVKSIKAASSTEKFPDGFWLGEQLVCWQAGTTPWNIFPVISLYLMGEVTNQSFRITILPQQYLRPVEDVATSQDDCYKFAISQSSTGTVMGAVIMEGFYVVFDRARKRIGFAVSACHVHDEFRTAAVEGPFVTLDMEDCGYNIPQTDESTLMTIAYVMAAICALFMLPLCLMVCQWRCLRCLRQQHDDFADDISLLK

[7] = Effective permeability of the compound in PBS buffer at pH 7.4/EtOH buffer (7:3) incubated for 20 hrs by UV-plate spectroscopy based PAMPA-BBB assay
[8] = Cytotoxicity in human HL7702 cells assessed as reduction in cell viability incubated for 48 hrs by MTT assay; format: toxicity, cell-based; details: HL7702 (L02) cells
[9] = molecular target: T1, Beta-secretase 1; test: Inhibition of recombinant human BACE1 using fluorogenic polypeptide Mca-SEVNLDAEFRK(Dpn)RRNH2 as substrate incubated for 60 mins by FRET assay
[10] = molecular target: Glycogen synthase kinase-3 beta (Homo sapiens, UniProt P49841); test: Inhibition of GSK-3beta (unknown origin)
Glycogen synthase kinase-3 beta, sequence (P49841 whole entry): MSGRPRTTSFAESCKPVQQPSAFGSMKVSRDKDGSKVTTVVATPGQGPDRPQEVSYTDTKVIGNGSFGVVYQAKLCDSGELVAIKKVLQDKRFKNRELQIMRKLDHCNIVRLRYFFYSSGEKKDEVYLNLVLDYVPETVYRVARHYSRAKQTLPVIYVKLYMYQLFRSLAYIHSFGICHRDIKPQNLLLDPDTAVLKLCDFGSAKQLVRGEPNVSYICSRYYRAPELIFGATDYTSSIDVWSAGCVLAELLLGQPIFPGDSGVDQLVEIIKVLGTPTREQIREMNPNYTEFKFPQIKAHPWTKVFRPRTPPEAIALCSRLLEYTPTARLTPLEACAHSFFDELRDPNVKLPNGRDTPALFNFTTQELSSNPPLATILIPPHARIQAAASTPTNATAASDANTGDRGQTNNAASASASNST

[11] = molecular target: T1, Beta-secretase 1; test: Inhibition of BACE1 (unknown origin)

| Compound | IC50 at 48 h [1] [µM] | IC50 [2] [µM] | IC50 [3] [µM] | Ratio IC50 [4] | IC50 at 48 h [5] [µM] | inhibition [6] [%] | Papp at 20 h [7] [×10⁻⁶ cm/s] | IC50 at 48 h [8] [µM] | IC50 [9] [µM] | IC50 [10] [µM] | IC50 [11] [µM] |
| --- | --- | --- | --- | --- | --- | --- | --- | --- | --- | --- | --- |
| O=C(Nc1cc(-c2ccc3c(OCCCNC4CCN(Cc5ccccc5)CC4)cc(=O)oc3c2)ccn1)c1ccccc1 | 1.91 | > 50 | 13.5 | > 3.7 | 1.5 | – | – | – | – | – | – |
| COc1ccc(CNC2CCN(CCCOc3cc(=O)oc4cc(-c5cccnc5)ccc34)CC2)cc1 | 9.12 | 11.3 | 11.6 | 0.982 | 6.81 | 82 | – | – | – | – | – |
| CN(Cc1ccccc1)C1CCN(CCCOc2cc(=O)oc3cc(-c4ccc(F)nc4)ccc23)CC1 | 10.4 | > 50 | 4.07 | > 12.3 | 15.6 | 61.3 | – | – | – | – | – |
| O=c1cc(OCCCN2CCC(NCc3ccsc3)CC2)c2ccc(-c3cccnc3)cc2o1 | 14.1 | 9.98 | 3.29 | 3.03 | 14.2 | 64.7 | 15.4 | 36.2 | – | – | – |
| O=c1cc(OCCCN2CCC(NCc3ccccc3)CC2)c2ccc(-c3ccncc3)cc2o1 | 13.9 | > 50 | 16.8 | > 2.97 | 16.4 | 49.4 | – | – | – | – | – |
| O=c1cc(OCCCN2CCC(NCc3cccc(F)c3)CC2)c2ccc(-c3cccnc3)cc2o1 | 14.6 | 28.4 | 10.1 | 2.82 | 14.4 | 34 | – | – | – | – | – |
| O=c1cc(OCCCN2CCC(NCc3ccccc3)CC2)c2ccc(Br)cc2o1 | 11.8 | 35.7 | 22.7 | 1.58 | > 20 | 72.8 | – | – | – | – | – |
| O=c1cc(OCCCN2CCC(NCc3ccccc3)CC2)c2ccc(-c3cccnc3)cc2o1 | > 20 | 21.4 | 9.31 | 2.3 | > 20 | 51.4 | – | – | – | – | – |
| O=c1cc(OCCCN2CCC(NCc3ccccc3)CC2)c2ccc(-c3ccc(F)nc3)cc2o1 | 8.49 | 44.2 | 3.54 | 12.5 | 12.2 | – | – | – | – | – | – |
| O=C(Nc1cc(-c2ccc3c(OCCCNC4CCN(Cc5ccccc5)CC4)cc(=O)oc3c2)ccn1)C1CC1 | 3.65 | > 50 | 6.75 | > 7.41 | 3.41 | 30.9 | – | – | – | – | – |
| O=c1cc(OCCCNC2CCN(Cc3ccccc3)CC2)c2ccc(-c3ccc(F)cc3)cc2o1 | 9.14 | > 50 | 34.3 | > 1.46 | 6.69 | – | – | – | – | – | – |
| O=c1cc(OCCCN2CCOCC2)c2ccc(-c3cccnc3)cc2o1 | > 20 | > 50 | 15.7 | > 3.19 | > 20 | – | – | – | – | – | – |
| O=c1cc(OCCCNC2CCN(Cc3ccccc3)CC2)c2ccc(-c3ccnc(F)c3)cc2o1 | 5.95 | > 50 | 2.14 | > 23.4 | 5.56 | – | – | – | – | – | – |
| C[C@@]1(c2cc(-c3cncnc3)c(F)cc2F)CCSC(N)=N1 | – | – | – | – | – | 80.3 | – | – | – | – | – |
| N#Cc1cccc(CNC2CCN(CCCOc3cc(=O)oc4cc(-c5cccnc5)ccc34)CC2)c1 | 3.26 | > 50 | 7.28 | > 6.87 | 12.4 | 89.5 | – | – | – | – | – |
| Cc1ccc(CNC2CCN(CCCOc3cc(=O)oc4cc(-c5cccnc5)ccc34)CC2)cc1 | 9.93 | 16.3 | 14.2 | 1.15 | 16.5 | 36.4 | – | – | – | – | – |
| O=c1cc(OCCCNC2CCN(Cc3ccccc3)CC2)c2ccc(-c3ccncc3)cc2o1 | 10.6 | > 50 | 2.24 | > 22.3 | 10.2 | – | – | – | – | – | – |
| COc1cccc(CNC2CCN(CCCOc3cc(=O)oc4cc(-c5cccnc5)ccc34)CC2)c1 | 11.4 | 11.3 | 12.4 | > 4.03 | 19.3 | 48.8 | – | – | – | – | – |
| Cc1cccc(CNC2CCN(CCCOc3cc(=O)oc4cc(-c5cccnc5)ccc34)CC2)c1 | 13.1 | 18.6 | 16.6 | 1.12 | 12 | – | – | – | – | – | – |
| O=c1cc(OCCCN2CCC(NCc3ccc(F)c(F)c3)CC2)c2ccc(-c3cccnc3)cc2o1 | 9.72 | 22.8 | 12.7 | 1.78 | 5.36 | 93.8 | 9.4 | 8.05 | 1.81 | – | – |
| O=C(Nc1cc(-c2ccc3c(OCCCN4CCC(NCc5ccccc5)CC4)cc(=O)oc3c2)ccn1)C1CC1 | 3.34 | 29 | 9.69 | 2.99 | 1.87 | 34.7 | – | – | – | – | – |
| O=c1cc(OCCCN2CCC(CNCc3ccccc3F)CC2)c2ccc(-c3cccnc3)cc2o1 | 4.26 | 31.1 | 10.7 | 2.91 | 6.49 | 67.2 | – | – | – | – | – |
| Nc1c2c(nc3ccccc13)CCCC2 [TACRINE] | – | – | – | – | – | – | 8.04 | – | – | – | – |
| CC(C)=CC(O)C/C(C)=C/COc1c2ccoc2cc2oc(=O)ccc12 (stereo not drawn) [NOTOPTEROL] | > 20 | > 100 | > 100 | – | > 20 | 10.2 | – | – | 26 | 1 | 26 |
| O=c1cc(OCCCN2CCC(NCc3ccc(F)cc3)CC2)c2ccc(-c3cccnc3)cc2o1 | > 20 | > 50 | 25.9 | > 1.93 | 10.9 | 22.1 | – | – | – | – | – |
| O=c1cc(OCCCN2CCC(NCc3cccc([N+](=O)[O-])c3)CC2)c2ccc(-c3cccnc3)cc2o1 | 9.29 | > 50 | 36.5 | > 1.37 | 8.37 | 46.1 | – | – | – | – | – |
| CN(Cc1ccccc1)C1CCN(CCCOc2cc(=O)oc3cc(-c4ccc(F)cc4)ccc23)CC1 | 3.37 | > 50 | 4.55 | > 11 | 4.88 | 70.9 | – | – | – | – | – |
| COc1cccc(/C=N/C2CCN(Cc3ccccc3)CC2)c1OC | – | – | – | – | – | – | – | – | – | > 15 | – |
| O=c1cc(OCCCN2CCC(NCc3ccccc3F)CC2)c2ccc(-c3cccnc3)cc2o1 | 15.1 | > 50 | 11.6 | > 4.31 | 19.1 | – | – | – | – | – | – |
| O=c1cc(OCCCNC2CCN(Cc3ccccc3)CC2)c2ccc(-c3ccc(F)nc3)cc2o1 | 3.93 | > 50 | 1.72 | > 29 | 5.75 | – | – | – | – | – | – |
